Laboratory results from US8414885B2, “Methods and compositions for treating cancer” (priority 2009, dated 2013).
Peptide text beside a SMILES is read from it. * marks the point of attachment. Cbz = O=C(OCc1ccccc1)*; CH2F = FC*

Legend:
calpain = assay: Immunoblotting for calpain activation in infected melanoma cells; format: cell-based, human; settings: delta-PK infected cultures; PD150606 100 μM; z-VAD-fmk 100 μM (Sigma-Aldrich) or 20 μM (Promega)
From the text: (§1) FIG. 6. Calpain and caspase-7 and caspace-3 are activated in delta-PK infected melanoma cells. […] Data were quantified by densitometry and expressed as the ratio of the p76/p80 and p28 densitometric units +/−SD, respectively. Representatives of three replicate experiments are shown (***p<0.001 vs. Mock). B. The immunoblots in FIG. 6A were sequentially stripped and re-probed with antibodies to activated caspase-7, activated caspase-3, and actin. Data were quantified by densitometry and results are expressed as densitometric units +/−SD (**p<0.01, ***p<0.001 vs. Mock). C. […]
(§2) Cultured cells were lysed with radioimmunoprecipitation buffer [RIPA; 20 mM Tris-HCl (pH 7.4), […], 1% Nonidet P-40, 0.1% sodium dodecyl sulfate (SDS), 0.5% sodium deoxycholate] supplemented with protease and phosphatase inhibitor cocktails (Sigma-Aldrich), and sonicated twice for 30 seconds at 25% output power with a sonicator ultrasonic processor (Misonix, Inc., Farmingdale, N.Y.). […] Protein concentration was determined by the bicinchoninic assay (Pierce, Rockford, Ill.), and 100 μg protein samples were resolved by SDS-polyacrylamide gel elecrophoresis (SDS-PAGE) and transferred to polyvinylidene fluoride membranes followed by immunoblotting. […] Quantitation was by densitometric scanning with the Bio-Rad GS-700 imaging densitometer (Bio-Rad, Hercules, Calif.). […]

caspase-3 = assay: Immunoblotting for caspase-3 activation in infected melanoma cells; format: cell-based, human; settings: delta-PK infected cultures, PD150606 100 μM, 24 hrs p.i.
From the text: as §1, §2

Row | Structure (SMILES) | effect of inhibitor on delta-PK induced calpain activation (p76/p80 ratio, p28) (calpain) | effect of inhibitor on levels of caspase-3p17 cleavage product (caspase-3)
1 | O=C(O)/C(S)=C/c1ccc(I)cc1 [PD150606] | inhibited | increased
2 | COC(=O)C[C@H](NC(=O)[C@H](C)NC(=O)[C@@H](NC(=O)OCc1ccccc1)C(C)C)C(=O)CF [z-VAD-fmk, benzyloxcarbonyl-Val-Ala-Asp-fluormethyl ketone] (Cbz-Val-Ala-Asp(OMe)-CH2F) | did not affect calpain activation | –
